Patent US9278981B2, “Compounds and compositions for inhibiting the activity of ABL1, ABL2 and BCR-ABL1” (Novartis AG, priority 2012, dated 2016)

Columns and labels:
ABL1 (64-515) [1] = molecular target: T1, ABL1 (64-515) (Homo sapiens (Human), UniProt P00519); assay: Caliper ABL1 (64-515) assay (microfluidic mobility shift); format: biochemical
ABL1 (64-515) [2] = molecular target: T1, ABL1 (64-515); assay: Radio ABL1 (64-515) assay (radiometric filter-binding); format: biochemical

T1 sequence (P00519 64-515): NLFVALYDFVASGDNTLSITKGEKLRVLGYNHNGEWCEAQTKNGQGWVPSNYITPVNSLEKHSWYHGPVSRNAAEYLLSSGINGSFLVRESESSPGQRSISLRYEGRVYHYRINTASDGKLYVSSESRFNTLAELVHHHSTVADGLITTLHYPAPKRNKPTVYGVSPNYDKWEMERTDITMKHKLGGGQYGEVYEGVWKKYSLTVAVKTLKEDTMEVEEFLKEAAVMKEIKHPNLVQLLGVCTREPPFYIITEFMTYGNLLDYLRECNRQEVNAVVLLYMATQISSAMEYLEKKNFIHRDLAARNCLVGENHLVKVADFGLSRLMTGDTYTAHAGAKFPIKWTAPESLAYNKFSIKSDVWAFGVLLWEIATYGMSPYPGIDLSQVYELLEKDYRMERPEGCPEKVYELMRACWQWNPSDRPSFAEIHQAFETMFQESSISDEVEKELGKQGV

Row | IC50 (ABL1 (64-515) [1]) [nM] | IC50 (ABL1 (64-515) [2]) [nM] | SMILES
1 | 0.7 | 6 | O=C(Nc1ccc(OC(F)(F)F)cc1)c1cnc(N2C[C@H](CO)[C@@H](O)C2)c(-c2cncc(F)c2)c1 (relative stereo) [Example 92, 5′-Fluoro-2-(trans-3-hydroxy-4-(hydroxymethyl)pyrrolidin-1-yl)-N-(4-(trifluoromethoxy)phenyl)-[3,3′-bipyridine]-5-carboxamide]
2 | 1.3 | 1 | O=C(Nc1ccc(OC(F)(F)Cl)cc1)c1cnc(N2C[C@H](CO)[C@@H](O)C2)c(-c2cncnc2)c1 (relative stereo) [Example 250, N-(4-(Chlorodifluoromethoxy)phenyl)-6-(trans-3-hydroxy-4-(hydroxymethyl)pyrrolidin-1-yl)-5-(pyrimidin-5-yl)nicotinamide]
3 | 1.7 | 2 | CO[C@H]1CN(c2ncc(C(=O)Nc3ccc(OC(F)(F)F)cc3)cc2-c2cncc(F)c2)C[C@@H]1N (relative stereo) [Example 286, 2-(trans-3-Amino-4-methoxypyrrolidin-1-yl)-5′-fluoro-N-(4-(trifluoromethoxy)phenyl)-[3,3′-bipyridine]-5-carboxamide]
4 | 2.7 | < 3 | O=C(Nc1ccc(OC(F)(F)F)cc1)c1ccc(N2CC[C@@H](O)C2)c(-c2cccnc2)c1 [Example 5, (R)-4-(3-Hydroxypyrrolidin-1-yl)-3-(pyridin-3-yl)-N-(4-(trifluoromethoxy)phenyl)benzamide]
5 | 1.2 | < 3 | O=C(Nc1ccc(OC(F)(F)F)cc1)c1ccc(N2C[C@H](O)[C@@H](O)C2)c(-c2cncnc2)c1 [Example 7, 4-((3S,4S)-3,4-Dihydroxypyrrolidin-1-yl)-3-(pyrimidin-5-yl)-N-(4-(trifluoromethoxy)phenyl)benzamide]
6 | 2.8 | 13 | O=C(Nc1ccc(OC(F)(F)F)cc1)c1ccc(N2C[C@H](O)[C@@H](O)C2)c(-c2cccnc2)c1 [Example 8, 4-((3S,4S)-3,4-Dihydroxypyrrolidin-1-yl)-3-(pyridin-3-yl)-N-(4-(trifluoromethoxy)phenyl)benzamide]
7 | 1.8 | 17 | Cc1ccc(-c2cc(C(=O)Nc3ccc(OC(F)(F)F)cc3)ccc2N2C[C@H](O)[C@@H](O)C2)cn1 [Example 9, 4-((3S,4S)-3,4-Dihydroxypyrrolidin-1-yl)-3-(6-methylpyridin-3-yl)-N-(4-(trifluoromethoxy)phenyl)benzamide]
8 | 2.2 | 3 | O=C(Nc1ccc(OC(F)(F)F)cc1)c1ccc(N2C[C@@H](O)[C@@H](O)C2)c(-c2cncnc2)c1 [Example 10, 4-(cis-3,4-Dihydroxypyrrolidin-1-yl)-3-(pyrimidin-5-yl)-N-(4-(trifluoromethoxy)phenyl)benzamide]
9 | 1.9 | < 3 | O=C(Nc1ccc(OC(F)(F)F)cc1)c1cnc(N2CC(O)C2)c(-c2cncnc2)c1 [Example 25]
10 | 0.8 | < 3 | Cc1ccc(-c2cc(C(=O)Nc3ccc(OC(F)(F)F)cc3)cnc2N2CC[C@H](O)C2)cn1 [Example 34, (S)-2-(3-Hydroxypyrrolidin-1-yl)-6′-methyl-N-(4-(trifluoromethoxy)phenyl)-[3,3′-bipyridine]-5-carboxamide]
11 | 1.4 | 4 | Nc1ncc(-c2cc(C(=O)Nc3ccc(OC(F)(F)F)cc3)cnc2N2CC[C@@H](O)C2)cn1 [Example 38, (R)-5-(2-Aminopyrimidin-5-yl)-6-(3-hydroxypyrrolidin-1-yl)-N-(4-(trifluoromethoxy)phenyl)nicotinamide]
12 | 0.6 | < 3 | O=C(Nc1ccc(OC(F)(F)F)cc1)c1cnc(N2CC[C@@H](O)C2)c(-c2cccnc2)c1 [Example 39, (R)-2-(3-Hydroxypyrrolidin-1-yl)-N-(4-(trifluoromethoxy)phenyl)-[3,3′-bipyridine]-5-carboxamide]
13 | 0.8 | < 3 | Cc1ccc(-c2cc(C(=O)Nc3ccc(OC(F)(F)F)cc3)cnc2N2CC[C@@H](O)C2)cn1 [Example 41, (R)-2-(3-Hydroxypyrrolidin-1-yl)-6′-methyl-N-(4-(trifluoromethoxy)phenyl)-[3,3′-bipyridine]-5-carboxamide]
14 | 11 | – | O=C(Nc1ccc(OC(F)(F)F)cc1)c1cnc(N2CC3CN(CCO)CC3C2)c(-c2cncnc2)c1 (stereo not drawn) [Example 281, 6-(5-(2-Hydroxyethyl)hexahydropyrrolo[3,4-c]pyrrol-2(1H)-yl)-5-(pyrimidin-5-yl)-N-(4-(trifluoromethoxy)phenyl)nicotinamide]
15 | 1.5 | – | N#Cc1ccc(F)cc1-c1cc(C(=O)Nc2ccc(OC(F)(F)Cl)cc2)cnc1N1CC[C@@H](O)C1 [Example 287, (R)—N-(4-(Chlorodifluoromethoxy)phenyl)-5-(2-cyano-5-fluorophenyl)-6-(3-hydroxypyrrolidin-1-yl)nicotinamide]
16 | 1 | – | O=C(Nc1ccc(OC(F)(F)Cl)cc1)c1cnc(N2CC[C@@H](O)C2)c(-c2cc(F)cnc2Cl)c1 [Example 288, (R)-2′-Chloro-N-(4-(chlorodifluoromethoxy)phenyl)-5′-fluoro-2-(3-hydroxypyrrolidin-1-yl)-[3,3′-bipyridine]-5-carboxamide]
17 | 0.2 | – | Cc1ccncc1-c1cc(C(=O)Nc2ccc(OC(F)(F)Cl)cc2)cnc1N1CC[C@@H](O)C1 [Example 291, (R)—N-(4-(Chlorodifluoromethoxy)phenyl)-2-(3-hydroxypyrrolidin-1-yl)-4′-methyl-[3,3′-bipyridine]-5-carboxamide]
18 | 0.5 | – | N#Cc1ncc(F)cc1-c1cc(C(=O)Nc2ccc(OC(F)(F)Cl)cc2)cnc1N1CC[C@@H](O)C1 [Example 292, (R)—N-(4-(Chlorodifluoromethoxy)phenyl)-2′-cyano-5′-fluoro-2-(3-hydroxypyrrolidin-1-yl)-[3,3′-bipyridine]-5-carboxamide]
19 | 0.7 | – | N#Cc1cc(F)cc(-c2cc(C(=O)Nc3ccc(OC(F)(F)Cl)cc3)cnc2N2CC[C@@H](O)C2)c1 [Example 293, (R)—N-(4-(Chlorodifluoromethoxy)phenyl)-5-(3-cyano-5-fluorophenyl)-6-(3-hydroxypyrrolidin-1-yl)nicotinamide]
20 | 3 | – | Cc1ccc(F)cc1-c1cc(C(=O)Nc2ccc(OC(F)(F)Cl)cc2)cnc1N1CC[C@@H](O)C1 [Example 294, (R)—N-(4-(Chlorodifluoromethoxy)phenyl)-5-(5-fluoro-2-methylphenyl)-6-(3-hydroxypyrrolidin-1-yl)nicotinamide]
21 | 0.7 | – | N#Cc1ccc(F)c(-c2cc(C(=O)Nc3ccc(OC(F)(F)Cl)cc3)cnc2N2CC[C@@H](O)C2)c1 [Example 295, (R)—N-(4-(Chlorodifluoromethoxy)phenyl)-5-(5-cyano-2-fluorophenyl)-6-(3-hydroxypyrrolidin-1-yl)nicotinamide]
22 | 1 | – | Cc1ccc(F)cc1-c1cc(C(=O)Nc2ccc(OC(F)(F)Cl)cc2)cnc1N1C[C@H](O)[C@@H](O)C1 [Example 296, N-(4-(Chlorodifluoromethoxy)phenyl)-6-((3S,4S)-3,4-dihydroxypyrrolidin-1-yl)-5-(5-fluoro-2-methylphenyl)nicotinamide]
23 | 0.3 | – | COc1ncc(-c2cc(C(=O)Nc3ccc(OC(F)(F)Cl)cc3)cnc2N2CC[C@@H](O)C2)cc1C#N [Example 299, (R)—N-(4-(Chlorodifluoromethoxy)phenyl)-5′-cyano-2-(3-hydroxypyrrolidin-1-yl)-6′-methoxy-[3,3′-bipyridine]-5-carboxamide]
